Source: the supplement of paper PMC10883282

Experiments:
Assay in all cases: standardised AUC of viability dose-response curve (72 h) (fraction (0-1)); higher = less growth inhibition (more resistant)
[1] = tested on: A204
In short: (§1)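 Sarcoma cell lines in 384-well plates were treated in triplicate for 72 h with 2.5 µl of a compound dilution series, made in 1:3 steps from 10 mM to 0.0002 mM on the compound plate. ATPLite viability was scaled from 1 (full) to 0 (none) and fitted per drug and cell line with a four-parameter log-logistic model. The values are standardised areas under the dose-response curve in log-dose space, from a modified drexplorer computeAUC. On that scale, 1 means no response and 0 means full response.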

[2] = tested on: G401
In short: as §1

[3] = tested on: HS729
In short: as §1

[4] = tested on: HT1080
In short: as §1

[5] = tested on: KHOS-240S
In short: as §1

[6] = tested on: KHOS-NP
In short: as §1

[7] = tested on: MES-SA
In short: as §1

[8] = tested on: RD-ES
In short: as §1

[9] = tested on: RD
In short: as §1

[10] = tested on: SK-ES-1
In short: as §1

[11] = tested on: SK-LMS-1
In short: as §1

[12] = tested on: SW1353
In short: as §1

[13] = tested on: SW684
In short: as §1

[14] = tested on: SW872
In short: as §1

[15] = tested on: SW982
In short: as §1

[16] = tested on: SYO-1
In short: as §1

[17] = tested on: VA-ES-BJ
In short: as §1

| SMILES | standardised AUC [1] | standardised AUC [2] | standardised AUC [3] | standardised AUC [4] | standardised AUC [5] | standardised AUC [6] | standardised AUC [7] | standardised AUC [8] | standardised AUC [9] | standardised AUC [10] | standardised AUC [11] | standardised AUC [12] | standardised AUC [13] | standardised AUC [14] | standardised AUC [15] | standardised AUC [16] | standardised AUC [17] |
| --- | --- | --- | --- | --- | --- | --- | --- | --- | --- | --- | --- | --- | --- | --- | --- | --- | --- |
| C[C@@H]1COCCN1c1cc(-c2ccnn2C)c2ccnc(-c3ccn[nH]3)c2n1 | 0.689 | 0.819 | 0.782 | 0.686 | 0.603 | 0.826 | 0.641 | 0.673 | 0.75 | 0.637 | 0.751 | 0.791 | 0.828 | 0.706 | 0.615 | 0.606 | 0.626 |
| O=C(Cc1ccc(-c2ccc(OCCN3CCOCC3)cc2)cn1)NCc1ccccc1 [KX2-391] | 0.677 | 0.729 | 0.742 | 0.579 | 0.609 | 0.72 | 0.57 | 0.539 | 0.636 | 0.484 | 0.676 | 0.752 | 0.827 | 0.733 | 0.63 | 0.668 | 0.632 |
